{"source": "patent US20210052480A1", "about": "“USE OF CYCLIC PEPTIDES IN COSMETIC” (Sederma, priority 2018, published 2021)", "assay_type_in_all_cases": "cell-based", "key": {"HNFs [1]": {"system": "HNFs", "experiment": "Comparative collagen I synthesis by fibroblasts, ELISA", "details": "3 days", "description": "HNFs were grown in 24-well plates for 24 hours. The cells were placed in contact or not with test products at different concentrations for 3 days. The collagen synthesis was evaluated by ELISA assay on the culture supernatant and the result was reduced to the number of cells."}, "HNFs [2]": {"system": "HNFs", "experiment": "Comparative elastin synthesis by fibroblasts, ELISA", "details": "12.5 ppm; 3 days"}, "FHNs": {"system": "FHNs", "experiment": "Comparative collagen I synthesis by fibroblasts, IMF", "details": "6 days", "description": "FHNs were grown in 24-well plates for 24 hours. The cells were placed in contact with test products (or their excipient) at different concentrations for 6 days. The collagen I produced by the cells was then quantified by immunofluorescence on the fixed mats, and the result was then reduced to the number of cells."}}}
{"substance": "Cyclo(-Met-Leu-Ile-Pro-Pro-Phe-Phe-Val-Ile) (MLIPPFFVI; cyclic; Synthetic peptide or Linum usitatissimum; (1)..(1) M can be oxidized into sulfoxide or sulfone; (1)..(9) Cyclic peptide) [Linusorb B2]", "values": [{"measurement": "Collagen I production (ELISA method), comparison", "setting": "HNFs [1]; 10 ppm", "result": "+36.2%; p <0.01"}, {"measurement": "Collagen I production (ELISA method), comparison", "setting": "HNFs [1]; 15 ppm", "result": "+39.2%; p <0.01"}, {"measurement": "Production of elastin (ELISA method), comparison", "setting": "HNFs [2]", "result": "+43%; p <0.05"}, {"measurement": "Production of collagen I (IMF method), comparison", "setting": "FHNs; 5 ppm", "result": "+34.2; dns"}, {"measurement": "Production of collagen I (IMF method), comparison", "setting": "FHNs; 10 ppm", "result": "+41.8; p <0.01"}]}
{"substance": "cyclo(ILVPPFFLI) [Linusorb B3]", "values": [{"measurement": "Collagen I production (ELISA method), comparison", "setting": "HNFs [1]; 10 ppm", "result": "−0.4%; nds"}, {"measurement": "Collagen I production (ELISA method), comparison", "setting": "HNFs [1]; 15 ppm", "result": "+62.6%; p <0.01"}, {"measurement": "Production of elastin (ELISA method), comparison", "setting": "HNFs [2]", "result": "+58%; p <0.05"}, {"measurement": "Production of collagen I (IMF method), comparison", "setting": "FHNs; 5 ppm", "result": "+111.1; p <0.01"}, {"measurement": "Production of collagen I (IMF method), comparison", "setting": "FHNs; 10 ppm", "result": "+121.7; p <0.01"}]}
